Laboratory results from PubChem BioAssay (NCI).
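Each compound was tested at five concentrations against cells in 96-well plates for 48 hours. GI50 is the concentration that inhibits growth by half. At the TGI there is no net growth.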

Tests used:
Test in all cases: inhibition of tumour cell growth, NCI panel, 48 h; in the data active = GI50 below about 0.43 µM; inactive = the rest
SNB-19 CNS = system: SNB-19 CNS
HOP-62 NSCLC = system: HOP-62 NSCLC
SNB-75 CNS = system: SNB-75 CNS
NCI-H23 lung = system: NCI-H23 lung
CCRF-CEM leukemia = system: CCRF-CEM leukemia
A549 NSCLC = system: A549 NSCLC
UACC-62 melanoma = system: UACC-62 melanoma
KM12 colon = system: KM12 colon
HCT-116 colon = system: HCT-116 colon
UO-31 renal = system: UO-31 renal
MCF7 breast = system: MCF7 breast
BT-549 breast = system: BT-549 breast
M14 melanoma = system: M14 melanoma
SK-MEL-5 melanoma = system: SK-MEL-5 melanoma
PC-3 prostate = system: PC-3 prostate
DU-145 prostate = system: DU-145 prostate
SR leukemia = system: SR leukemia
SF-268 CNS = system: SF-268 CNS
MOLT-4 leukemia = system: MOLT-4 leukemia
RXF 393 renal = system: RXF 393 renal
786-0 renal = system: 786-0 renal
SF-539 CNS = system: SF-539 CNS
OVCAR-5 ovarian = system: OVCAR-5 ovarian
HT29 colon = system: HT29 colon
SK-MEL-28 melanoma = system: SK-MEL-28 melanoma
NCI/ADR-RES ovarian = system: NCI/ADR-RES ovarian
COLO 205 colon = system: COLO 205 colon
OVCAR-8 ovarian = system: OVCAR-8 ovarian
NCI-H460 lung = system: NCI-H460 lung
UACC-257 melanoma = system: UACC-257 melanoma
SW-620 colon = system: SW-620 colon
RPMI-8226 leukemia = system: RPMI-8226 leukemia
MDA-MB-231 breast = system: MDA-MB-231 breast
T-47D breast = system: T-47D breast
ACHN renal = system: ACHN renal
K-562 leukemia = system: K-562 leukemia
NCI-H226 lung = system: NCI-H226 lung
SK-OV-3 ovarian = system: SK-OV-3 ovarian
HCC-2998 colon = system: HCC-2998 colon
U251 CNS = system: U251 CNS
OVCAR-3 ovarian = system: OVCAR-3 ovarian
A498 renal = system: A498 renal
HS 578T breast = system: HS 578T breast
LOX IMVI melanoma = system: LOX IMVI melanoma
NCI-H522 lung = system: NCI-H522 lung
SK-MEL-2 melanoma = system: SK-MEL-2 melanoma
IGROV1 ovarian = system: IGROV1 ovarian
OVCAR-4 ovarian = system: OVCAR-4 ovarian
HOP-92 NSCLC = system: HOP-92 NSCLC
HCT-15 colon = system: HCT-15 colon
EKVX NSCLC = system: EKVX NSCLC

CC(=O)CCc1ccc(Oc2c3c(nc4ccccc24)OCC3)cc1
78.8 µM: TGI (NCI-H226 lung)
61.7 µM: TGI (SNB-75 CNS)
55.1 µM: TGI (SK-MEL-5 melanoma)
inactive: GI50 (SNB-19 CNS) > 100 µM | GI50 (HOP-62 NSCLC) > 100 µM | GI50 (SNB-75 CNS) 14.3 µM | GI50 (NCI-H23 lung) 35.3 µM | GI50 (CCRF-CEM leukemia) > 100 µM | GI50 (A549 NSCLC) 11.7 µM | GI50 (UACC-62 melanoma) 34.1 µM | GI50 (KM12 colon) > 100 µM | GI50 (HCT-116 colon) > 100 µM | GI50 (UO-31 renal) 54.4 µM | GI50 (MCF7 breast) 60.6 µM | GI50 (BT-549 breast) 67.5 µM | GI50 (M14 melanoma) > 100 µM | GI50 (SK-MEL-5 melanoma) 16.6 µM | GI50 (PC-3 prostate) 82.3 µM | GI50 (DU-145 prostate) > 100 µM | GI50 (SR leukemia) 60.2 µM | GI50 (SF-268 CNS) 27.5 µM | GI50 (MOLT-4 leukemia) 91.9 µM | GI50 (RXF 393 renal) 22.3 µM | GI50 (786-0 renal) > 100 µM | GI50 (SF-539 CNS) 85.7 µM | GI50 (OVCAR-5 ovarian) 77 µM | GI50 (HT29 colon) > 100 µM | GI50 (SK-MEL-28 melanoma) 44.9 µM | GI50 (NCI/ADR-RES ovarian) 29.5 µM | GI50 (COLO 205 colon) > 100 µM | GI50 (OVCAR-8 ovarian) 3.76 µM | GI50 (NCI-H460 lung) 29.4 µM | GI50 (UACC-257 melanoma) 3.12 µM | GI50 (SW-620 colon) > 100 µM | GI50 (RPMI-8226 leukemia) 67.7 µM | GI50 (MDA-MB-231 breast) 52 µM | GI50 (T-47D breast) 3.7 µM | GI50 (ACHN renal) 53.9 µM | GI50 (K-562 leukemia) 59.3 µM | GI50 (NCI-H226 lung) 12.3 µM | GI50 (SK-OV-3 ovarian) 62.1 µM | GI50 (HCC-2998 colon) 32.5 µM | GI50 (U251 CNS) 41.7 µM | GI50 (OVCAR-3 ovarian) 31.6 µM | GI50 (A498 renal) 9.22 µM | GI50 (HS 578T breast) 71.4 µM | GI50 (LOX IMVI melanoma) > 100 µM | GI50 (NCI-H522 lung) 56.2 µM | GI50 (SK-MEL-2 melanoma) > 100 µM | GI50 (IGROV1 ovarian) > 100 µM | GI50 (OVCAR-4 ovarian) > 100 µM | GI50 (HOP-92 NSCLC) 42.9 µM | GI50 (HCT-15 colon) 58.8 µM | GI50 (EKVX NSCLC) 13.8 µM
98.6 µM: TGI (EKVX NSCLC)
50.1 µM: TGI (A498 renal)
> 100 µM: TGI (SNB-19 CNS) | TGI (HOP-62 NSCLC) | TGI (NCI-H23 lung) | TGI (CCRF-CEM leukemia) | TGI (A549 NSCLC) | TGI (UACC-62 melanoma) | TGI (KM12 colon) | TGI (HCT-116 colon) | TGI (UO-31 renal) | TGI (MCF7 breast) | TGI (BT-549 breast) | TGI (M14 melanoma) | TGI (PC-3 prostate) | TGI (DU-145 prostate) | TGI (SR leukemia) | TGI (SF-268 CNS) | TGI (MOLT-4 leukemia) | TGI (RXF 393 renal) | TGI (786-0 renal) | TGI (SF-539 CNS) | TGI (OVCAR-5 ovarian) | TGI (HT29 colon) | TGI (SK-MEL-28 melanoma) | TGI (NCI/ADR-RES ovarian) | TGI (COLO 205 colon) | TGI (OVCAR-8 ovarian) | TGI (NCI-H460 lung) | TGI (SW-620 colon) | TGI (RPMI-8226 leukemia) | TGI (MDA-MB-231 breast) | TGI (ACHN renal) | TGI (K-562 leukemia) | TGI (SK-OV-3 ovarian) | TGI (U251 CNS) | TGI (OVCAR-3 ovarian) | TGI (HS 578T breast) | TGI (LOX IMVI melanoma) | TGI (NCI-H522 lung) | TGI (SK-MEL-2 melanoma) | TGI (IGROV1 ovarian) | TGI (OVCAR-4 ovarian) | TGI (HOP-92 NSCLC) | TGI (HCT-15 colon)
30.2 µM: TGI (UACC-257 melanoma)
91.8 µM: TGI (HCC-2998 colon)
23.6 µM: TGI (T-47D breast)
